Measurements from article PMC7481839, “Switchable foldamer ion channels with antibacterial activity” (Chemical Science, 2020).
Where a SMILES comes first, the peptide text is derived from it.

Test: U-tube lucigenin (chloride) transport experiment
Details: 1 mM in chloroform, 20 mM MOPS, 100 mM NaCl, pH 7.4, 25 °C, up to 24 h, UV at 455 nm
Protocol: To assess if these compounds can act as cation carriers, U-tube experiments for sodium picrate transport were performed on 1, Cu(II)[1]Cl2 and Cu(II)[2]Cl2. […] Similarly, a U-tube experiment for chloride transport was performed using lucigenin.[4],[40]
5.7 Preparation of large unilamellar vesicles for CF release assays
A 50 mM 5(6)-carboxyfluorescein (CF) solution in MOPS buffer (20 mM MOPS, 100 mM NaCl, pH 7.4) was prepared by dissolving 5/6-CF in MOPS buffer, adding a sodium hydroxide (1M) solution dropwise until pH 11 was reached. The resulting solution was the slowly acidified to pH 7.4.
EYPC-cholesterol (4:1) 800 nm vesicles were prepared as described above, using the above mentioned 5(6)-carboxyfluorescein (CF) (50 mM) solution. […]
The U-tube was incubated in a water bath at 25 °C and the chloroform phase was stirred at 300 rpm during the entire experiment, ensuring efficient diffusion of any potential carrier-ion complex to the receiving phase. Aliquots (1 mL) were taken from the receiving phase and analysed for the presence of picrate by UV spectroscopy (at 356 nm). […]
Figure S11: U-tube metal picrate transport data for foldamer 1 (brown), Cu[2]Cl2 (black), Cu[1]Cl2 (green), and the control transporter, dibenzo-18-crown-6 (red). Absorbance at 356 nm. […]
Aliquots (1 mL) were taken from the receiving phase and analysed for the presence of lucigenin by UV spectroscopy (at 455 nm). […]

For `CC(C)(NC(=O)C(C)(C)NC(=O)C(C)(C)NC(=O)C(C)(C)NC(=O)C(C)(C)n1cc(CN(Cc2ccccn2)Cc2ccccn2)nn1)C(=O)NC(C)(C)C(=O)NC(C)(C)C(=O)NC(C)(C)C(=O)OCC[Si](C)(C)C` [foldamer 2] (HELM PEPTIDE1{[CC(C)(C(=O)[*:2])n1cc(CN(Cc2ccccn2)Cc2ccccn2)nn1].[Aib].[Aib].[Aib].[Aib].[Aib].[Aib].[Aib].[C[Si](C)(C)CCO[*:1]]}$$$$V2.0), the “chloride (lucigenin) transport through the organic phase” value was “no chloride was carried through the organic phase”.
